Marks after values point to notes of the source that are not given here.
What was measured:
Assay type in all cases: in vivo, human
participants with OSA = test: Study 14-003, 12-week randomized controlled trial: 24-hour ABPM at screening and week 8; conditions: for effect on percentage of participants with a non-dipping BP profile: screening to week 8, any dose studied
Experimental: Solriamfetol is a dopamine and norepinephrine reuptake inhibitor indicated to improve wakefulness in adult patients with excessive daytime sleepiness associated with obstructive sleep apnea (OSA; 37.5-150 mg/d) or narcolepsy (75-150 mg/d). Previous studies reported small mean increases in blood pressure (BP); however, the time course of these effects has not been evaluated. […] These analyses evaluated the effects of solriamfetol treatment on BP using 24-hour ambulatory blood pressure monitoring (ABPM) and on the percentage of OSA patients with a non-dipping BP profile.
Twenty-four-hour ABPM was conducted at baseline and week 8 in a 12-week randomized controlled trial in participants with OSA (n=474). Blood pressure was collected every 30 minutes.

[1] = 1-year open-label extension (OLE) study: weight change
Experimental: A 1-year open-label extension (OLE) study was performed with 374 participants to examined whether clinically significant weight loss (≥5%) in this population had favorable effects on biomarkers of cardiovascular risk compared to no such weight loss. The study measured changes in weight and BP (parent study baseline to OLE week 40) and clinical laboratory assessments (OLE baseline to week 40) in participants with narcolepsy (n=124) or OSA (n=250) who received solriamfetol at doses of 75, 150, or 300 mg/d.
Increased prevalence of obesity has been reported in patients with narcolepsy and obstructive sleep apnea (OSA). […] We examined whether clinically significant weight loss (≥5%) in this population had favorable effects on biomarkers of cardiovascular risk compared to no such weight loss.
We evaluated changes in weight and BP (parent study baseline to OLE week 40) and clinical laboratory assessments (OLE baseline to week 40) in participants with narcolepsy (n=124) or OSA (n=250) from the OLE study.

[2] = test system: adults with EDS associated with OSA; test: 12-week phase 3 trial in OSA: vital signs, antihypertensive medication use, AEs of hypertension/increased BP
Experimental: An exploratory analysis of data from one 12-week randomized, controlled trial (Schweitzer P K, et al. Am J Respir Crit Care Med. 2019; 199(11):1421-31) and 1 long-term open-label extension (OLE) trial in adults with EDS (Epworth Sleepiness Scale score ≥10) associated with OSA (Malhotra A, et al. Sleep. 2020; 43(2):zsz220) was carried out. Participants with current/prior use of primary OSA therapy (positive airway pressure [PAP], oral pressure therapy, oral appliance, or upper airway stimulation) were eligible, regardless of the level of adherence to primary OSA therapy; participants who had not attempted to use primary OSA therapy were excluded. Adherence to primary OSA therapy was defined as PAP use ≥4 hours/night on ≥70% of nights/week, historical report (with investigator concurrence) of oral appliance use on ≥70% of nights, or effective surgical intervention. Nonadherence to primary OSA therapy was defined as device use at a level lower than specific above, no device use at all, or surgical intervention deemed no longer effective. Participants received placebo or solriamfetol 37.5 (12-week trial only), 75, 150, or 300 mg/day for 12 weeks (12-week trial) or ≤40 weeks (OLE trial). Vital signs, antihypertensive medication use, and adverse events (AEs) were monitored throughout the studies. Baseline demographics, CV comorbidities, and concomitant medications, the percentage of participants who initiated antihypertensive medication use during treatment, and the incidence of and discontinuations due to AEs of hypertension/increased BP were summarized for the safety population (participants who received ≥1 dose of study medication).

[3] = 37.5 mg, listed as solriamfetol

With NC(=O)OC[C@H](N)Cc1ccccc1 [Solriamfetol, (R)-2-amino-3-phenylpropyl carbamate] the “Mean Change in DBP on ABPM from Screening to Week 8, Mean (SD)” value (“Mean Change in DBP on ABPM … (SD)” below) (participants with OSA; 37.5 mg) was 0.8 (6.09) mmHg, the “Mean Change in HR on ABPM from Screening to Week 8, Mean (SD)” value (“Mean Change in HR on ABPM … (SD)” for short) (participants with OSA; 37.5 mg) was 0.7 (5.57) bpm and the “Mean Change in SBP on ABPM from Screening to Week 8, Mean (SD)” value (“Mean Change in SBP on ABPM … (SD)” for short) (participants with OSA; 37.5 mg) was 0.7 (10.19) mmHg. For the same molecule, the “Mean Change in DBP on ABPM … (SD)” value (participants with OSA; [3]) was 0.8 mmHg, the “Mean Change in SBP on ABPM … (SD)” value (participants with OSA; [3]) was 0.7 mmHg and the “Mean Change in DBP on ABPM … (SD)” value (participants with OSA; 75 mg) was 0.7 (6.55) mmHg. The “Mean Change in HR on ABPM … (SD)” value (participants with OSA; 75 mg) was 0.4 (7.70) bpm, the “Mean Change in SBP on ABPM … (SD)” value (participants with OSA; 75 mg) was 2.2 (9.82) mmHg and the “Mean Change in DBP on ABPM … (SD)” value (participants with OSA; 75 mg, listed as solriamfetol) was 0.7 mmHg. The “Mean Change in SBP on ABPM … (SD)” value (participants with OSA; 75 mg, listed as solriamfetol) was 2.2 mmHg, the “Mean Change in DBP on ABPM … (SD)” value (participants with OSA; 150 mg) was −0.2 (5.10) mmHg and the “Mean Change in HR on ABPM … (SD)” value (participants with OSA; 150 mg) was 1.5 (6.53) bpm. The “Mean Change in SBP on ABPM … (SD)” value (participants with OSA; 150 mg) was −0.5 (8.64) mmHg, the “Mean Change in DBP on ABPM … (SD)” value (participants with OSA; 150 mg, listed as solriamfetol) was −0.2 mmHg and the “Mean Change in SBP on ABPM … (SD)” value (participants with OSA; 150 mg, listed as solriamfetol) was −0.5 mmHg. The “Mean Change in DBP on ABPM … (SD)” value (participants with OSA; 300 mg) was 2.5 (8.66) mmHg, the “Mean Change in HR on ABPM … (SD)” value (participants with OSA; 300 mg) was 1.9 (5.56) bpm and the “Mean Change in SBP on ABPM … (SD)” value (participants with OSA; 300 mg) was 2.9 (13.41) mmHg. For the same molecule, the “Mean Change in DBP on ABPM … (SD)” value (participants with OSA; 300 mg, listed as solriamfetol) was 2.5 mmHg, the “Mean Change in SBP on ABPM … (SD)” value (participants with OSA; 300 mg, listed as solriamfetol) was 2.9 mmHg and the “percentage of non-dippers (<10% decrease in MAP during sleep)” value (participants with OSA; combined solriamfetol, week 8 (baseline 55%)) was 53%. For the same molecule, the “time course of effects on BP (24-hour ABPM)” value (participants with OSA; highest approved dose of 150 mg/d) was “transient across the day”, the “effect on percentage of participants with a non-dipping BP profile” value (participants with OSA) was “not observed to have an increase” and the “effect on percentage of participants with a non-dipping BP profile” value (participants with OSA; listed as solriamfetol) was “did not increase”. The “participants with ≥5% weight loss” value ([1]; 1-year OLE, narcolepsy or OSA, 75 mg/d) was 4.5%, the “participants with ≥5% weight loss” value ([1]; 1-year OLE, narcolepsy or OSA, 150 mg/d) was 17.3% and the “participants with ≥5% weight loss” value ([1]; 1-year OLE, narcolepsy or OSA, 300 mg/d) was 32.4%. For the same molecule, the “participants with ≥5% weight gain” value ([1]; of 374 participants, all doses, 34 participants, week 40) was 9.1 % of total population, the “participants with ≥5% weight loss” value ([1]; of 374 participants, all doses, 96 participants, week 40) was 25.7% and the “total participants with AEs of hypertension/increased BP” value ([2]; 12-week study) was 10 participants. The “AE of HTN/increased BP” value ([2]; 12-week study, 37.5 mg) was 0 n (%), the “Discontinuation due to AE of HTN/increased BP” value ([2]; 12-week study, 37.5 mg) was 0 n (%) and the “Initiated anti-HTN” value ([2]; 12-week study, 37.5 mg) was 1 (1.7) n (%). The “AE of HTN/increased BP” value ([2]; 12-week study, 75 mg) was 0 n (%), the “Discontinuation due to AE of HTN/increased BP” value ([2]; 12-week study, 75 mg) was 0 n (%) and the “Initiated anti-HTN” value ([2]; 12-week study, 75 mg) was 0 n (%). For the same molecule, the “AE of HTN/increased BP, (%)” value ([2]; 12-week study, 150 mg) was “(4.3) %”, the “Discontinuation due to AE of HTN/increased BP, (%)” value ([2]; 12-week study, 150 mg) was “(0.9)^b %” and the “Initiated anti-HTN” value ([2]; 12-week study, 150 mg) was 1 (0.9) n (%). For the same molecule, the “AE of HTN/increased BP, (%)” value ([2]; 12-week study, 300 mg) was “(4.2) %”, the “Discontinuation due to AE of HTN/increased BP” value ([2]; 12-week study, 300 mg) was 0 n (%) and the “Initiated anti-HTN” value ([2]; 12-week study, 300 mg) was 2 (1.7) n (%). The “serious CV AEs” value ([2]; 12-week trial) was “no serious CV AEs”.
